Measurements: patent US5082942A, “Novel derivatives of tetrahydro-2,3,6,7,1H,5H,11H-(1)benzopyrano(6,7,8,ij)quinolizinone-11 usable as markers of organic compounds for the detection of said compounds by chemiluminescence or fluorescence” (Laboratories Eurobio, priority 1988, dated 1992)
≈ marks a conversion by molar mass, not a printed value.

Tests used:
[1] = Fluorescence and absorbance measurements; format: physicochemical; conditions: for ε, molecular extinction coefficient: 365 nm; for S, fluorescence sensitivity: Table 2; for RF, quantum efficiency of fluorescence: acetone and ethylacetate 75:25, 10^-6 mole/l, 20°C, relative to quinine disulphate
[2] = Chemiluminescence measurements; format: physicochemical; conditions: for RC, quantum efficiency of chemiluminescence: 10^-3 mole/l coumarin solution; for RE, excitation efficiency: RC = Rex × RF
[3] = Solubility in organic solvents; format: physicochemical; conditions: organic solvent or mixture; in tetrahydrofuran, acetone or methanol
[4] = Stability of a solution in tetrahydrofuran (high pressure liquid chromatography and fluorimetric detection); format: physicochemical; conditions: 2.10^-3 mole/l in tetrahydrofuran
Text: The stability of a 2.10^-3 mole/l solution of luminarine-1 in tetrahydrofuran was studied by high pressure liquid chromatography and fluorimetric detection.

[5] = 2 mg/l in 0.1 N H2SO4; Parker method; cited from earlier work
[6] = TCPO and H2O2, (C102) 1.4 × 10^-3
[7] = TCPO and H2O2, (C102) 1.4 × 10^-6
[8] = TCPO and H2O2, (C102) 1.4 × 10^-7
[9] = TCPO and H2O2, (C102) 1.4 × 10^-8
[10] = TCPO and H2O2, (C102) 1.4 × 10^-9

Structure (SMILES): CCN(CC)c1ccc2c(C)cc(=O)oc2c1 [COUMARIN-1, dimethylamino-7 methyl-4 coumarin]
- ε, molecular extinction coefficient [1]: 38 000
- S, fluorescence sensitivity [1]: 57 10^3
- RF, quantum efficiency of fluorescence [1]: 0.55
- RC, quantum efficiency of chemiluminescence ([2]; DNPO and H2O2): 0.18 10^2 E · mole^-1
- RE, excitation efficiency ([2]; DNPO and H2O2): 0.33 10^-2
- RC, quantum efficiency of chemiluminescence ([2]; TCPO and H2O2, pH 7.5): 0.37 10^2 E · mole^-1
- RE, excitation efficiency ([2]; TCPO and H2O2, pH 7.5): 0.0067

Structure (SMILES): Cc1cc(=O)oc2c3c4c(cc12)CCCN4CCC3 [COUMARIN-102, tetrahydro-2,3,5,6,7,1H,5H,11H-(1)-benzopyrano (6,7,8-ij) methyl-9 quinolizinone-11]
- ε, molecular extinction coefficient [1]: 23000 M⁻¹ cm⁻¹
- S, fluorescence sensitivity [1]: 36 10^3
- comparison of fluorescence, absorbance and chemiluminescence properties ([1]; Tables 2 and 3, versus coumarin-1 and coumarin-311): has the best fluorescence, absorbance and chemiluminescence properties
- RF, quantum efficiency of fluorescence [1]: 0.57
- RC, quantum efficiency of chemiluminescence ([2]; DNPO and H2O2): 0.26 10^2 E · mole^-1
- RE, excitation efficiency ([2]; DNPO and H2O2): 0.45 10^-2
- chemiluminescence efficiency RC as a function of concentration ([2]; TCPO and H2O2): increases with the coumarin 102 concentration
- RC, quantum efficiency of chemiluminescence ([2]; TCPO and H2O2, pH 7.5): 0.37 10^2 E · mole^-1
- RE, excitation efficiency ([2]; TCPO and H2O2, pH 7.5): 0.0065
- Imax, maximum intensity [2, 6]: 301 A.U.
- RC, chemiluminescence efficiency [2, 6]: 12.0 10^4 E · mol^-1
- T1/2, time for reaching half the maximum intensity after the maximum time [2, 6]: 6 s
- Tmax, time for reaching the maximum intensity [2, 6]: 12 s
- Imax, maximum intensity [2, 7]: 75 A.U.
- RC, chemiluminescence efficiency [2, 7]: 4.14 10^4 E · mol^-1
- T1/2, time for reaching half the maximum intensity after the maximum time [2, 7]: 9 s
- Tmax, time for reaching the maximum intensity [2, 7]: 12 s
- Imax, maximum intensity [2, 8]: 31 A.U.
- RC, chemiluminescence efficiency [2, 8]: 2.31 10^4 E · mol^-1
- T1/2, time for reaching half the maximum intensity after the maximum time [2, 8]: 7.2 s
- Tmax, time for reaching the maximum intensity [2, 8]: 12 s
- Imax, maximum intensity [2, 9]: 3.2 A.U.
- RC, chemiluminescence efficiency [2, 9]: 0.40 10^4 E · mol^-1
- T1/2, time for reaching half the maximum intensity after the maximum time [2, 9]: 6 s
- Tmax, time for reaching the maximum intensity [2, 9]: 12 s
- Imax, maximum intensity [2, 10]: 0.3 A.U.
- RC, chemiluminescence efficiency [2, 10]: 0.20 10^4 E · mol^-1
- T1/2, time for reaching half the maximum intensity after the maximum time [2, 10]: 4.8 s
- Tmax, time for reaching the maximum intensity [2, 10]: 12 s
- Imax, maximum intensity ([2]; pH 4): 24 A.U.
- RC, chemiluminescence efficiency ([2]; pH 4): 1.52 10^4 E · mol^-1
- T1/2, time for reaching half the maximum intensity after the maximum time ([2]; pH 4): 300 s
- Tmax, time for reaching the maximum intensity ([2]; pH 4): 48 s
- chemiluminescence efficiency as a function of pH ([2]; pH 4 to 8): rises up to pH6 and then falls
- maximum intensity as a function of pH ([2]; pH 4 to 8): increases significantly with the pH
- Imax, maximum intensity ([2]; pH 5): 17 A.U.
- RC, chemiluminescence efficiency ([2]; pH 5): 1.58 10^4 E · mol^-1
- T1/2, time for reaching half the maximum intensity after the maximum time ([2]; pH 5): 360 s
- Tmax, time for reaching the maximum intensity ([2]; pH 5): 60 s
- Imax, maximum intensity ([2]; pH 6): 25 A.U.
- RC, chemiluminescence efficiency ([2]; pH 6): 2.34 10^4 E · mol^-1
- T1/2, time for reaching half the maximum intensity after the maximum time ([2]; pH 6): 336 s
- Tmax, time for reaching the maximum intensity ([2]; pH 6): 48 s
- Imax, maximum intensity ([2]; pH 7): 110 A.U.
- RC, chemiluminescence efficiency ([2]; pH 7): 2.23 10^4 E · mol^-1
- T1/2, time for reaching half the maximum intensity after the maximum time ([2]; pH 7): 108 s
- Tmax, time for reaching the maximum intensity ([2]; pH 7): 24 s
- Imax, maximum intensity ([2]; pH 8): 245 A.U.
- RC, chemiluminescence efficiency ([2]; pH 8): 1.60 10^4 E · mol^-1
- T1/2, time for reaching half the maximum intensity after the maximum time ([2]; pH 8): 24 s
- Tmax, time for reaching the maximum intensity ([2]; pH 8): 12 s
- Tmax and T1/2 as a function of pH ([2]; pH beyond 5): decrease when the pH increases beyond 5

Structure (SMILES): Cc1cc(=O)oc2cc(N(C)C)ccc12 [COUMARIN-311, dimethylamino-7 methyl-4 coumarin]
- ε, molecular extinction coefficient [1]: 26900 M⁻¹ cm⁻¹
- S, fluorescence sensitivity [1]: 40 10^3
- RF, quantum efficiency of fluorescence [1]: 0.52
- RC, quantum efficiency of chemiluminescence ([2]; DNPO and H2O2): 0.13 10^2 E · mole^-1
- RE, excitation efficiency ([2]; DNPO and H2O2): 0.24 10^-2
- RC, quantum efficiency of chemiluminescence ([2]; TCPO and H2O2, pH 7.5): 0.17 10^2 E · mole^-1
- RE, excitation efficiency ([2]; TCPO and H2O2, pH 7.5): 0.0032

Structure (SMILES): O=C(Cc1cc(=O)oc2c3c4c(cc12)CCCN4CCC3)ON1C(=O)CCC1=O [luminarine-1, tetrahydro-2,3,6,7,1H,5H, 11H(1)-benzo-pyrano(6,7,8-ij) succinimidoxycarbonylmethyl-9 quinolizinone-11]
- solubility [3]: ~1000 µg/mL (≈ 2520 µM)
- stability of solution at ambient temperature ([4]; ambient temperature, hydrolysis to acid (VIII)): deteriorates significantly in a few hours at ambient temperature
- stability of frozen solution ([4]; frozen): at least two months without any apparent deterioration

Structure (SMILES): C=C[C@H]1CN2CC[C@H]1C[C@H]2[C@H](O)c1ccnc2ccc(OC)cc12 [quinine disulphate]
- quantum efficiency of fluorescence (reference) [5]: 0.546
